# Legend:
# [1] = test system: S100A8; experiment: Microarray gene expression in brain, spleen and liver of Hsd:Athymic Nude-Foxn1nu mice (Example 7); assay type: in vivo, mouse
# Experimental: (§1) Total RNA was extracted from samples using the RNeasy extraction kit (Qiagen). The quality and concentration of the RNA was analyzed using the Agilent 2100 bioanalyzer and NanoDrop™ ND-1000 (Thermo Scientific). Samples with RNA integrity number (RIN)<6.0 were discarded. Total RNA (0.5 μg) amplification and labelling with Cy3 or Cy5 was carried out using the Eberwein mRNA amplification procedure (Van Gelder et al, Proc Natl Acad Sci USA 1990, 87:1663-1667) employing the MessageAmp™ aRNA amplification kit from Ambion (Applied Biosystems) following the manufacturer's instructions with minor modifications. As hybridization controls, plant mRNAs were transcribed from a plasmid containing the Zea mays Xet (xyloglucan endo-transglycosylase) cDNA and from a plasmid containing the Zea mays Zmmyb42 cDNA, independently prepared Cy3 and Cy5 labelled aRNA from these two RNAs using the Eberwein mRNA amplification procedure (as disclosed in Cerdà et al, Gen Comp Endocrinol 2008, 156:470-481).
# (§2) The Cy3- and Cy5-labelled cRNAs and spikes were combined and hybridized to the microarray described in Example 2.6 for 17 h at 60° C. using Agilent's gaskets G2534-60002, G2534A hybridization chambers and DNA Hybridization Oven G2545A, according to the manufacturer's instructions. More specifically, equal amounts of Cy3 and Cy5 labeled Xet aRNA as well as equal amounts of Cy3 and Cy5 labeled Zmmyb42 aRNA were spiked into each mixture hybridized to the array. Arrays were washed and raw data were obtained using Agilent's DNA Microarray Scanner G2505B and Feature Extraction software (v10.1). The raw fluorescence intensity data were processed using applicant's proprietary software, and consists in the following operations:
# (§3) Data normalization was carried out by an improved version of the nonlinear Q-splines normalization method (Workman et al., Genome Biol 2002, 3(9):research0048.1-0048.16). Normalization results were presented graphically as MA plots, as first described by Dudoit et al (Dudoit et al, Statistica Sinica, 2002, 12:111-139). Each point corresponds to a probe of the DNA array. M values (vertical axis) are the log-differential expression ratios. A values (horizontal axis) are the log-intensities of the spots. M and A are calculated from the Cy5 and Cy3 intensity values as of each spot. The DNA Array data is normalized using an improved version of non-linear Q-Splines normalization described by Workman et al., Genome Biol 2002, 3(9):research0048.1-0048.16. This process is useful to correct the deviation of the M values from the statistical assumption that most of the spots have M=0 in MA plots. The method allows the adjustment of all M values to form a cloud centered at M=0 in all intensity ranges. The data used to calculate the normalization fitting curve is the totality of the raw measurement dataset, excluding the signals for the probes for the spiked-in plant RNA controls and negative controls. In order to be able to normalize properly the data among all the experiments, the probe-set must include an important group of genes that should have no change (M=0) in the experiment. The normalization function is then applied to all the data, including controls.
# (§4) Normalized and log-transformed data were used to calculate log 2 (sample/control) and Fold Change (FC) values. No background subtraction was applied to the signal intensity values during data processing, permitting robust selection of differentially expressed genes with low expression levels at the cost of potential sub-estimation of change when intensity levels are close to the array background level.
# (§5) Powered Compound 3, 4 or 5 was dissolved in a 20% solution of 2-hydroxypropyl-R-cyclodextrin in water at the appropriate concentrations, vortexed and placed in an ultrasonic bath for 5 minutes.
# (§6) Hsd:Athymic Nude-Foxn1nu mice were maintained in air- and temperature-controlled cages with regular supply of water and food. A maximum of 6 mice/cage were raised. […]
# [2] = test system: S100A9; experiment: as above; assay type: in vivo, mouse
# Experimental: as §1, §2, §3, §4, §5, §6
compound,measurement,setting,value
"N[C@H]1CCN(CCN[C@H]2C[C@@H]2c2ccc(-c3cccc(C(F)(F)F)c3)cc2)C1 (racemic) [Compound 5, (S)-1-(2-(((trans)-2-(3′-(trifluoromethyl)-[1,1′-biphenyl]-4-yl)cyclopropyl)amino)ethyl)pyrrolidin-3-amine]",Hybridization signal sample_Cy5,"[1]; BRAIN, S100A8, 3.3 mg/kg",268.162
same,log2 (sample/control),"[1]; BRAIN, S100A8, 3.3 mg/kg vs VEH",−0.6462
same,Hybridization signal sample_Cy5,"[1]; BRAIN, S100A8, 11 mg/kg",38.4889
same,log2 (sample/control),"[1]; BRAIN, S100A8, 11 mg/kg vs VEH",−3.263
same,Hybridization signal sample_Cy5,"[1]; BRAIN, S100A8, 33 mg/kg",36.6941
same,log2 (sample/control),"[1]; BRAIN, S100A8, 33 mg/kg vs VEH",−3.57
same,Hybridization signal sample_Cy5,"[1]; LIVER, S100A8, 3.3 mg/kg",315.439
same,log2 (sample/control),"[1]; LIVER, S100A8, 3.3 mg/kg vs VEH",−0.4761
same,Hybridization signal sample_Cy5,"[1]; LIVER, S100A8, 11 mg/kg",73.2915
same,log2 (sample/control),"[1]; LIVER, S100A8, 11 mg/kg vs VEH",−2.357
same,Hybridization signal sample_Cy5,"[1]; LIVER, S100A8, 33 mg/kg",57.5133
same,log2 (sample/control),"[1]; LIVER, S100A8, 33 mg/kg vs VEH",−2.909
same,Hybridization signal sample_Cy5,"[1]; SPLEEN, S100A8, 3.3 mg/kg",4802.3
same,log2 (sample/control),"[1]; SPLEEN, S100A8, 3.3 mg/kg vs VEH",−1.65
same,Hybridization signal sample_Cy5,"[1]; SPLEEN, S100A8, 11 mg/kg",382.984
same,log2 (sample/control),"[1]; SPLEEN, S100A8, 11 mg/kg vs VEH",−5.38
same,Hybridization signal sample_Cy5,"[1]; SPLEEN, S100A8, 33 mg/kg",408.877
same,log2 (sample/control),"[1]; SPLEEN, S100A8, 33 mg/kg vs VEH",−5.243
same,Hybridization signal sample_Cy5,"[2]; BRAIN, S100A9, 3.3 mg/kg",746.537
same,log2 (sample/control),"[2]; BRAIN, S100A9, 3.3 mg/kg vs VEH",−0.9635
same,Hybridization signal sample_Cy5,"[2]; BRAIN, S100A9, 11 mg/kg",60.5479
same,log2 (sample/control),"[2]; BRAIN, S100A9, 11 mg/kg vs VEH",−4.54
same,Hybridization signal sample_Cy5,"[2]; BRAIN, S100A9, 33 mg/kg",58.3941
same,log2 (sample/control),"[2]; BRAIN, S100A9, 33 mg/kg vs VEH",−4.697
same,Hybridization signal sample_Cy5,"[2]; LIVER, S100A9, 3.3 mg/kg",987.357
same,log2 (sample/control),"[2]; LIVER, S100A9, 3.3 mg/kg vs VEH",−0.5728
same,Hybridization signal sample_Cy5,"[2]; LIVER, S100A9, 11 mg/kg",170.929
same,log2 (sample/control),"[2]; LIVER, S100A9, 11 mg/kg vs VEH",−3.056
same,Hybridization signal sample_Cy5,"[2]; LIVER, S100A9, 33 mg/kg",113.971
same,log2 (sample/control),"[2]; LIVER, S100A9, 33 mg/kg vs VEH",−3.811
same,Hybridization signal sample_Cy5,"[2]; SPLEEN, S100A9, 3.3 mg/kg",13461.8
same,log2 (sample/control),"[2]; SPLEEN, S100A9, 3.3 mg/kg vs VEH",−1.719
same,Hybridization signal sample_Cy5,"[2]; SPLEEN, S100A9, 11 mg/kg",963.073
same,log2 (sample/control),"[2]; SPLEEN, S100A9, 11 mg/kg vs VEH",−5.625
same,Hybridization signal sample_Cy5,"[2]; SPLEEN, S100A9, 33 mg/kg",944.034
same,log2 (sample/control),"[2]; SPLEEN, S100A9, 33 mg/kg vs VEH",−5.685

# Source: patent US20180284095A1, “BIOMARKERS ASSOCIATED WITH LSD1 INHIBITORS AND USES THEREOF” (Oryzon Genomics, S.A., priority 2015, published 2018)
